According to US7829298B2, “Human G protein-coupled receptors for metabolic-related disorders” (Arena Pharmaceuticals, Inc., priority 2001, dated 2010):
Entries after “also recorded” stand apart in the source; their conditions may differ. Read-outs that look alike come from different tables or passages of the source.

Legend:
hRUP38 = target: T1, hRUP38 (Homo sapiens, UniProt P49019); assay: Inhibition of forskolin stimulated cAMP in stable CHO cells (adenylyl cyclase assay); format: cell-based
T1 construct: The full length hRUP38 was cloned by PCR using hRUP38 specific primers; expressed in transfected cells
Source text: (§1) A Flash Plate™ Adenylyl Cyclase kit (New England Nuclear; Cat. No. SMP004A) designed for cell-based assays can be modified for use with crude plasma membranes. The Flash Plate wells can contain a scintillant coating which also contains a specific antibody recognizing cAMP. The cAMP generated in the wells can be quantitated by a direct competition for binding of radioactive cAMP tracer to the cAMP antibody. The following serves as a brief protocol for the measurement of changes in cAMP levels in whole cells that express the receptors.
(§2) Media is carefully aspirated off and discarded. 10 ml of PBS is gently added to each dish of cells followed by careful aspiration. 1 ml of Sigma cell dissociation buffer and 3 ml of PBS are added to each plate. Cells were pipetted off the plate and the cell suspension was collected into a 50 ml conical centrifuge tube. Cells were then centrifuged at room temperature at 1,100 rpm for 5 min. The cell pellet was carefully re-suspended into an appropriate volume of PBS (about 3 ml/plate). The cells were then counted using a hemocytometer and additional PBS was added to give the appropriate number of cells (with a final volume of about 50 μl/well).
The cells were then added to the wells and incubated for 60 min at room temperature. 100 μl of Detection Mix containing tracer cAMP was then added to the wells. Plates were then incubated additional 2 hours followed by counting in a Wallac MicroBeta scintillation counter. Values of cAMP/well were then extrapolated from a standard cAMP curve which was contained within each assay plate.

hRUP25 = hRUP25 (Homo sapiens, UniProt Q8TDS4); assay: Inhibition of forskolin stimulated cAMP accumulation in stable CHO cells (adenylyl cyclase assay); format: cell-based; settings: for inhibition of forskolin stimulated cAMP / agonist or not (in words): CHO cells expressing hRUP25
[1] = system: adipocyte primary cultures derived from human subcutaneous fat; assay: Isoproterenol induced lipolysis in human primary adipocytes; format: cell-based; settings: for EC50: read-out: EC50, inhibition of isoproterenol induced lipolysis
Source text: Lipolysis assays were done following the isolation of adipocytes from rat or human. The source of fat from rats was the epididymal fat and from humans was either subcutaneous or omental. Cells were isolated following collagenase digestion and floatation. An elevation of intracellular cAMP levels and concomitant activation of lipolysis via hormone sensitive lipase was accomplished using isoproterenol, forskolin, 3-isobutyl-1-methyl-xanthine (IBMX) or a combination thereof at concentrations and times determined empirically and depending on the source of tissue. […] Data was analyzed using Excel and PrismGraph.

hRUP19 [2] = target: T2, hRUP19 (Homo sapiens, UniProt Q9BXC0); assay: Inhibition of forskolin stimulated cAMP in stable CHO cells (adenylyl cyclase assay); format: cell-based; set-up: The full length hRUP19 was cloned by PCR using primers; expressed in transfected cells; settings: CHO cells expressing hRUP19
Source text: as §1
as §2, with “μl/well). […]” for “μl/well).”

[3] = system: rat epididymal fat derived adipocytes; settings: concentration of 10 μM
hRUP19 [4] = target: T2, hRUP19; settings: HEK293 cells transfected with GqΔGi plus hRUP19
male Sprague Dawley rats = settings: for plasma free fatty acids (FFA) level (in words): fasted rats, IP injection, 15 mg/kg, 30 mg/kg or 45 mg/kg, time course

Chain of hRUP25 (Q8TDS4 whole entry): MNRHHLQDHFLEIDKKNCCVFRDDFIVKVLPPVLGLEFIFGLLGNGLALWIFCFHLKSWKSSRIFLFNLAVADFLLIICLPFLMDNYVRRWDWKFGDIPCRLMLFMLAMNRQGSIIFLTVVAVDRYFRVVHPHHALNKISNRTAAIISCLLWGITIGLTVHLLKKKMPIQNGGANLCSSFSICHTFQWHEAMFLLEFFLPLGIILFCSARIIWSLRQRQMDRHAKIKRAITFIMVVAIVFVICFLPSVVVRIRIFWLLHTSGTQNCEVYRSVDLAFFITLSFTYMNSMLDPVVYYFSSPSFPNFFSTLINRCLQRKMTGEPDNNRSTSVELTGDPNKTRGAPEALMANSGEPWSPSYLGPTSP
T2 sequence (Q9BXC0 whole entry): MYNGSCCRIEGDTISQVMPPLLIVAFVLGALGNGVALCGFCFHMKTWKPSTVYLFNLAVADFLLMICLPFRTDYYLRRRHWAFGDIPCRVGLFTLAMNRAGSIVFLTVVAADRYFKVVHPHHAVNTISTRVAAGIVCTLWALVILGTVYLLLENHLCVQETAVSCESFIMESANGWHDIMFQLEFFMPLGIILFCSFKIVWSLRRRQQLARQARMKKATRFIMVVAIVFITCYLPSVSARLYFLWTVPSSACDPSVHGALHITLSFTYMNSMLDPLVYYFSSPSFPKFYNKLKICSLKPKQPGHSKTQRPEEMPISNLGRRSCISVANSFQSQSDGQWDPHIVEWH
T1 sequence (P49019 whole entry K94N/T173P/F198L/H253R/I317M/I346M): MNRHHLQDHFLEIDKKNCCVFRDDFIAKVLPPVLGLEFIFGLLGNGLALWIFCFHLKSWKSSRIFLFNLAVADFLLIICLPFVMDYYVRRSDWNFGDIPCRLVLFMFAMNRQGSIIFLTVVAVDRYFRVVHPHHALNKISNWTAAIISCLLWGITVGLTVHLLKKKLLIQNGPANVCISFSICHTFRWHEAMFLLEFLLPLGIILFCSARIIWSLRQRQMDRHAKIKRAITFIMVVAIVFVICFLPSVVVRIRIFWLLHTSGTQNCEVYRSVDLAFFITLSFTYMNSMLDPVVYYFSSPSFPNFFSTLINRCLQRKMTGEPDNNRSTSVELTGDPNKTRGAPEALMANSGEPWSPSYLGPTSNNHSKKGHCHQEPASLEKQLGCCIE

For CC(C)n1nnc2cc(C(=O)O)ccc21 [1-Isopropyl-1H-benzotriazole-5-carboxylic acid], the “inhibition of forskolin stimulated cAMP / agonist or not (in words)” value (hRUP38; hRUP38-expressing CHO cells) was “does and agonist for hRUP38”, the “inhibition of forskolin stimulated cAMP / agonist or not (in words)” value (hRUP25) was “no effect” and the “inhibition of isoproterenol stimulated lipolysis (in words)” value ([1]; isoproterenol 100 nM, primary human adipocytes) was “dose-dependant manner comparable to that of nicotinic acid; also recorded: dose-dependent manner comparable to that of nicotinic acid; also recorded: inhibit lipolysis”. For the same molecule, the “inhibition of forskolin stimulated cAMP / agonist or not (in words)” value (hRUP19 [2]) was “no effect”.

For CCOc1ccc(Br)cc1C=CC(=O)O [3-(5-Bromo-2-ethoxy-phenyl)-acrylic acid], the EC50 (hRUP38; hRUP38-expressing CHO cells) was 1170 nM, the “inhibition of forskolin stimulated cAMP / agonist or not (in words)” value (hRUP38; hRUP38-expressing CHO cells) was “activates inhibition of forskolin stimulated cAMP; also recorded: agonist for RUP38” and the “inhibition of forskolin stimulated cAMP / agonist or not (in words)” value (hRUP25) was “no effect”. For the same molecule, the “inhibition of forskolin stimulated cAMP / agonist or not (in words)” value (hRUP19 [2]) was “no effect”.

With CCCc1nn(C)c(O)c1C(=O)c1cccnc1 [(5-Hydroxy-1-methyl-3-propyl-1H-pyrazol-4-yl)-pyridin-3-yl-methanone] the “inhibition of forskolin stimulated cAMP / agonist or not (in words)” value (hRUP38; hRUP38-expressing CHO cells) was “not for RUP38”, the “activity on hRUP38-expressing CHO cells (in words)” value (hRUP38; up to a concentration of at least 100 μM (not shown)) was “no activity” and the “inhibition of forskolin stimulated cAMP / agonist or not (in words)” value (hRUP25) was “activates inhibition of forskolin stimulated cAMP”. The “inhibition of forskolin stimulated cAMP / agonist or not (in words)” value (hRUP25; listed as (5-Hydroxy-1-methyl-3-propyl-1H-pyrazol-4-yl)-pyridin-3-yl-methanone) was “agonist for RUP25” and the EC50 (hRUP25; hRUP25-expressing CHO cells (stable line #46 in FIG. 18B), read-out: EC50, inhibition of forskolin stimulated cAMP accumulation) was 352 nM.

With CN1CCC[C@H]1c1cccnc1 [(−)-nicotine, (−)-NICOTINE, reference compound] the EC50 (hRUP25) was 9800 nM and the “inhibition of forskolin stimulated cAMP / agonist or not (in words)” value (hRUP25) was “agonist for RUP25”.

With c1cncc(-c2nn[nH]n2)c1 [P-3-T, 3-tetrazole-5-pyridine, reference compound] the EC50 ([1]; adipocyte primary cultures derived from human subcutaneous fat) was 218 nM.

In the case of O=C(O)c1cccnc1 [nicotinic acid, Nicotinic acid], the “inhibition of isoproterenol induced lipolysis (in words)” value [3] is reported as “inhibiting isoproterenol induced lipolysis”, the “inositol phosphates (IPs) accumulation / agonist or not (in words)” value (hRUP19 [4]) is reported as “unresponsive” and the “inositol phosphates (IPs) accumulation / agonist or not (in words)” value (hRUP19 [4]; listed as Nicotinic acid) is reported as “not for RUP38 or RUP19”. For the same molecule, the “plasma FFA versus vehicle control after inhibition, rebound (in words)” value (male Sprague Dawley rats; 45 mg/kg IP, at 3 hr) was “rebound effect”, the “plasma free fatty acids (FFA) level (in words)” value (male Sprague Dawley rats) was “lower plasma free fatty acids” and the “plasma free fatty acids (FFA) level (in words)” value (male Sprague Dawley rats; listed as niacin) was “significantly decrease”. The “inhibition of isoproterenol stimulated lipolysis (in words)” value [1] was “inhibit lipolysis” and the EC50 ([1]; Homo sapiens, Adipocyte) was 716 nM.
